Values of other authors in US6765009B2, “1,4-Disubstituted benzo-fused compounds” (Boehringer Ingelheim Pharmaceuticals, Inc., priority 2001, dated 2004).

Key:
closed brain injury = conditions: experimental model
rheumatoid arthritis = conditions: Phase III clinical trial
septic shock syndrome = conditions: phase III human clinical trial

CCCCCCC(C)(C)c1cc(O)c2c(c1)OC(C)(C)[C@H]1CC=C(CO)C[C@H]21 [HU-211]
outcome of closed brain injury (closed brain injury): improve the outcome

Enbrel
efficacy in treatment of rheumatoid arthritis (rheumatoid arthritis): demonstrated efficacy

IL-1ra: "IL-1 receptor antagonist (IL-1ra) had been examined in human clinical trials" ... "(Antril, Amgen)"
mortality rate in patients with septic shock syndrome (septic shock syndrome): reduced the mortality rate
